According to patent US6258547A, “Nucleic acid encoding amp-activated protein kinase” (Zeneca Limited, priority 1993, dated 2001):

Legend:
[1] = target: T1, Saccharomyces cerevisiae SNF1 protein kinase, wild type (Saccharomyces cerevisiae, UniProt P06782+P12904); test: SAMS peptide phosphorylation assay in yeast extracts; type: biochemical; details: over a range of AMP concentrations; data not shown
T1 construct: We were able to detect kinase activity using this assay in wild type yeast extracts; endogenous in cells; host or cells: wild type Saccharomyces cerevisiae extract
T1 sequence (P06782 1-633): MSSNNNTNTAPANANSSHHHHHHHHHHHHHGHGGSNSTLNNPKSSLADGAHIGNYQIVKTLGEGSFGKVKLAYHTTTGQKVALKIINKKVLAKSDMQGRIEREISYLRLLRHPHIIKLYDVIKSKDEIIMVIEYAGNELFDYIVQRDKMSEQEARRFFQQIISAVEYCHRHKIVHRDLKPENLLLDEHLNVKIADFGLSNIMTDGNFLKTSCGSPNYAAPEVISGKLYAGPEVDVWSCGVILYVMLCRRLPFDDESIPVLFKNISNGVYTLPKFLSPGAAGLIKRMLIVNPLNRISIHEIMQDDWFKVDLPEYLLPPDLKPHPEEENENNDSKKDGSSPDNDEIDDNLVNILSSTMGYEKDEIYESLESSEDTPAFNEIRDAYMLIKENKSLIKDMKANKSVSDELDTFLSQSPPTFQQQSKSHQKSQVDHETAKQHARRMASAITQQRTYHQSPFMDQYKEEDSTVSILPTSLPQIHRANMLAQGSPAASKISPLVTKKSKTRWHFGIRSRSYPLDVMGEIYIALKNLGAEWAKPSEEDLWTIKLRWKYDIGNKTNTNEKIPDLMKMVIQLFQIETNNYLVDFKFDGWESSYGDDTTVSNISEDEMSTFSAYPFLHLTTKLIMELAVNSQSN
T1 sequence (P12904 1-322): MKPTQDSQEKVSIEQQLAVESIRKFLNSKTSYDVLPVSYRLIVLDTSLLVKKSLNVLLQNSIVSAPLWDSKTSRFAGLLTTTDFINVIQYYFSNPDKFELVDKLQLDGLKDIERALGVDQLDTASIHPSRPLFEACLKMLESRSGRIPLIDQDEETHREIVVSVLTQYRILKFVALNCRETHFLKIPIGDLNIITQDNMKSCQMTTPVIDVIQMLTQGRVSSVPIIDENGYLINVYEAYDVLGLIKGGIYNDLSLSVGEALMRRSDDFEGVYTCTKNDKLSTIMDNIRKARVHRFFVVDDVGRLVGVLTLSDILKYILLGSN
Description: In Saccharomyces cerevisiae SNF1 protein kinase activity is essential for release of genes from glucose repression. […] The amino acid sequences of SNF1 and AMPK are 46% identical. We investigated whether SNF1 and AMPK shared any functional similarity in addition to their primary sequence homology. […] We believe that this polypeptide is likely to be involved in the regulation of mammalian AMPK in the same way that SNF4 regulates SNF1 function in yeast. […] The apparent Km of SAMS peptide for SNF1 (20 μM) was similar to that of the AMPK (data not shown).

[2] = system: AMP-activated protein kinase (AMPK) purified from rat liver; details: cited from earlier work
[3] = system: AMP-activated protein kinase (AMPK) partially purified from rat liver (DEAE-Sepharose fraction); type: biochemical; details: 200 µM

Nc1ncnc2c1ncn2[C@@H]1O[C@H](COP(=O)(O)O)[C@@H](O)[C@H]1O [AMP]
activation of SNF1 by AMP [1]: unable to detect any significant activation | activation of AMPK by AMP [2]: approximately 5 fold | stimulation of AMPK activity by AMP [3]: approximately 3 fold
